Measurements from the supplement of paper PMC11061612.

How the values were obtained:
ES7 (Ewing's Sarcoma) = experiment: Bliss excess, mean over the matrix (fraction); higher = more synergy
In short: (§1)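 Cell lines in DMEM/F12 or RPMI with 10% FBS were plated in 1536-well plates, held 24 hours at 37°C, 5% CO2, then given two-drug dose matrices for 72 hours (DMSO typically 0.2%). Viability was read by CellTiter-Glo 2.0 luminescence and scaled as inhibition from 0 (vehicle wells) to 1 (blank wells). Combination Emax is the second-highest inhibition in the matrix; Bliss excess is observed combination effect minus expected EA + EB − EA·EB, EA and EB being single-agent effects.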

[1] = test system: G-292-Clone-A141B1 (Osteosarcoma); experiment: as above
In short: as §1

[2] = test system: IHH-4 (Thyroid Gland Carcinoma); experiment: as above
In short: as §1

[3] = test system: KARPAS-1106P (B-Cell Non-Hodgkin's Lymphoma); experiment: as above
In short: as §1

[4] = test system: KATOIII (Gastric Carcinoma); experiment: as above
In short: as §1

[5] = test system: MDA-MB-231 (Breast Carcinoma); experiment: as above
In short: as §1

[6] = test system: MFH-ino (Other Solid Carcinomas); experiment: as above
In short: as §1

[7] = test system: NALM-6 (B-Lymphoblastic Leukemia); experiment: as above
In short: as §1

NCI-H2595 (Mesothelioma) = experiment: as above
In short: as §1

[8] = test system: OCI-AML2 (Acute Myeloid Leukemia); experiment: as above
In short: as §1

SK-N-FI (Neuroblastoma) = experiment: as above
In short: as §1

[9] = test system: SW1990 (Pancreatic Carcinoma); experiment: as above
In short: as §1

[10] = test system: U-266 (Plasma Cell Myeloma); experiment: as above
In short: as §1

DSH1 (Bladder Carcinoma) = experiment: combination Emax (second highest fraction inhibited in the dose matrix, 72 h); higher = more inhibition; extreme values may be limits of the assay
In short: as §1

[11] = test system: HT-29 (Colorectal Carcinoma); experiment: as above
In short: as §1

[12] = test system: LS-513 (Colorectal Carcinoma); experiment: as above
In short: as §1

[13] = test system: NALM-6 (B-Lymphoblastic Leukemia); experiment: as above
In short: as §1

[14] = test system: SW1990 (Pancreatic Carcinoma); experiment: as above
In short: as §1

[15] = test system: TE-5 (Esophageal Squamous Cell Carcinoma); experiment: as above
In short: as §1

[16] = test system: COR-L95 (Small Cell Lung Carcinoma); experiment: as above
In short: as §1
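For Bliss excess, mean over the matrix in this document: after 72 h of two-drug dosing.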

| Structure (SMILES) | Bliss excess (ES7 (Ewing's Sarcoma)) | Bliss excess [1] | Bliss excess [2] | Bliss excess [3] | Bliss excess [4] | Bliss excess [5] | Bliss excess [6] | Bliss excess [7] | Bliss excess (NCI-H2595 (Mesothelioma)) | Bliss excess [8] | Bliss excess (SK-N-FI (Neuroblastoma)) | Bliss excess [9] | Bliss excess [10] | combination Emax (DSH1 (Bladder Carcinoma)) | combination Emax [11] | combination Emax [12] | combination Emax [13] | combination Emax [14] | combination Emax [15] | combination Emax [16] |
| --- | --- | --- | --- | --- | --- | --- | --- | --- | --- | --- | --- | --- | --- | --- | --- | --- | --- | --- | --- | --- |
| C[C@@H]1COCCN1c1cc(C2([S@](C)(=N)=O)CC2)nc(-c2ccnc3[nH]ccc23)n1 [AZD6738] + C1CC(C1)(C(=O)[O-])C(=O)[O-].N.N.[Pt+2] [Carboplatin] (first compound max 10 µM, 7x7, partner max 10 µM) | 0.0089 | 0.0001 | 0.0159 | -0.0247 | -0.0879 | -0.0294 | -0.0397 | -0.0122 | -0.0413 | -0.0318 | -0.049 | -0.0997 | -0.0751 | 0.725 | 0.766 | 0.727 | 0.924 | 0.422 | 0.541 | – |
| O=C(c1cc(Cc2n[nH]c(=O)c3ccccc23)ccc1F)N1CCN(C(=O)C2CC2)CC1 [Olaparib] + CN(CC[C@H](CSC1=CC=CC=C1)NC2=C(C=C(C=C2)S(=O)(=O)NC(=O)C3=CC=C(C=C3)N4CCC(CC4)[C@H](C5=CC=CC=C5C6=CC=C(C=C6)Cl)O)S(=O)(=O)C(F)(F)F)CCO [AZD4320] (first compound max 10 µM, 7x7, partner max 1 µM) | 0.0156 | -0.0275 | -0.0368 | -0.035 | -0.0047 | -0.071 | -0.0594 | 0.0211 | -0.045 | 0.041 | -0.0374 | -0.0818 | -0.0187 | 0.512 | 0.104 | 0.452 | 0.974 | 0.328 | 0.238 | 1 |
| Cc1c2c(nn1C)CSCc1cc(n(C)n1)CSc1cc(c3ccccc3c1)OCCCc1c(C(=O)O)n(C)c3c-2c(Cl)ccc13 [AZD5991] + CS(=O)(=O)CCNCc1ccc(-c2ccc3ncnc(Nc4ccc(OCc5cccc(F)c5)c(Cl)c4)c3c2)o1 [Lapatinib] (first compound max 1 µM, 7x7, partner max 10 µM) | 0.0148 | -0.0185 | 0.011 | 0.0482 | -0.0787 | -0.0852 | -0.0513 | -0.101 | -0.0398 | 0.0415 | -0.0808 | 0.0149 | -0.0501 | 0.991 | 0.783 | 0.822 | 0.761 | 0.295 | 0.308 | 0.177 |
| N#Cc1cnc(Nc2cc(NC[C@H]3CNCCO3)c(C(F)(F)F)cn2)cn1 [SRA737] + C=CCn1c(=O)c2cnc(Nc3ccc(N4CCN(C)CC4)cc3)nc2n1-c1cccc(C(C)(C)O)n1 [AZD1775] (first compound max 10 µM, partner max 1 µM) | 0.102 | -0.009 | 0.14 | 0.0143 | -0.0327 | 0.0607 | -0.013 | 0.11 | -0.0688 | 0.071 | 0.0703 | -0.0149 | 0.0474 | 0.682 | 0.827 | 0.84 | 0.969 | 0.507 | 0.482 | 0.299 |
| C=CCn1c(=O)c2cnc(Nc3ccc(N4CCN(C)CC4)cc3)nc2n1-c1cccc(C(C)(C)O)n1 [AZD1775] + Nc1ccn([C@@H]2O[C@H](CO)[C@@H](O)C2(F)F)c(=O)n1 [Gemcitabine] (first compound max 1 µM, partner max 0.3 µM) | 0.0319 | -0.0405 | 0.0306 | 0.0085 | -0.0196 | 0.0686 | -0.0087 | -0.0093 | -0.0765 | 0.0415 | -0.0167 | -0.0395 | -0.0121 | 0.923 | 0.884 | 0.839 | 0.958 | 0.384 | 0.568 | 0.411 |
| CN(CCO)CC[C@H](CSc1ccccc1)Nc1ccc(S(=O)(=O)NC(=O)c2ccc(N3CCC([C@@H](O)c4ccccc4-c4ccc(Cl)cc4)CC3)cc2)cc1S(=O)(=O)C(F)(F)F [AZD4320] + CC(=O)O[C@H]1C(=O)[C@@]2(C)[C@H]([C@H](OC(=O)c3ccccc3)[C@]3(O)C[C@H](OC(=O)[C@H](O)[C@@H](NC(=O)c4ccccc4)c4ccccc4)C(C)=C1C3(C)C)[C@]1(OC(C)=O)CO[C@@H]1C[C@@H]2O [Paclitaxel] (first compound max 1 µM, 7x7, partner max 3 µM) | 0.0227 | 0.157 | -0.0267 | 0.0929 | 0.168 | 0.111 | 0.0474 | 0.013 | 0.0192 | -0.0016 | -0.025 | 0.329 | 0.0026 | 1 | 0.885 | 0.963 | 1 | 0.957 | 0.968 | 1 |
| CS(=O)(=O)CCNCc1ccc(-c2ccc3ncnc(Nc4ccc(OCc5cccc(F)c5)c(Cl)c4)c3c2)o1 [Lapatinib] + Cn1cnc2c(F)c(Nc3ccc(Br)cc3Cl)c(C(=O)NOCCO)cc21 [Selumetinib] (first compound max 10 µM, 7x7, partner max 10 µM) | -0.0355 | -0.0566 | -0.0136 | 0.0436 | -0.0223 | -0.0236 | -0.0468 | 0.021 | -0.0548 | -0.0296 | 0.0179 | 0.0373 | 0.0347 | 0.802 | 0.958 | 0.949 | 0.847 | 0.465 | 0.369 | 0.207 |
| C[C@@H](Oc1cc(-c2cnn(C3CCNCC3)c2)cnc1N)c1c(Cl)ccc(F)c1Cl [Crizotinib] + CC1=C(C(=CC=C1)Cl)NC(=O)C2=CN=C(S2)NC3=CC(=NC(=N3)C)N4CCN(CC4)CCO [Dasatinib] (first compound max 10 µM, 7x7, partner max 2 µM) | 0.0273 | 0.028 | 0.0456 | -0.026 | -0.0263 | 0.0116 | 0.0577 | 0.022 | 0.0519 | -0.0271 | -0.0425 | -0.0312 | -0.0102 | 0.437 | 0.881 | 0.978 | 0.942 | 0.255 | 0.56 | 0.354 |
| CN(CCO)CC[C@H](CSc1ccccc1)Nc1ccc(S(=O)(=O)NC(=O)c2ccc(N3CCC([C@@H](O)c4ccccc4-c4ccc(Cl)cc4)CC3)cc2)cc1S(=O)(=O)C(F)(F)F [AZD4320] + CS(=O)(=O)CCNCc1ccc(-c2ccc3ncnc(Nc4ccc(OCc5cccc(F)c5)c(Cl)c4)c3c2)o1 [Lapatinib] (first compound max 1 µM, 7x7, partner max 10 µM) | 0.0769 | 0.0467 | -0.0096 | -0.0212 | -0.0407 | 0.0241 | -0.0732 | -0.0112 | 0.0034 | 0.0843 | 0.057 | -0.0093 | -0.052 | 1 | 0.928 | 0.956 | 1 | 0.302 | 0.888 | 1 |
| O=C(c1cc(Cc2n[nH]c(=O)c3ccccc23)ccc1F)N1CCN(C(=O)C2CC2)CC1 [Olaparib] + Cc1c2c(nn1C)CSCc1cc(n(C)n1)CSc1cc(c3ccccc3c1)OCCCc1c(C(=O)O)n(C)c3c-2c(Cl)ccc13 [AZD5991] (first compound max 10 µM, 7x7, partner max 1 µM) | 0.022 | -0.0462 | -0.0093 | 0.0403 | -0.0852 | -0.0354 | -0.069 | -0.039 | -0.0396 | 0.0775 | -0.0321 | -0.0296 | -0.0244 | 0.692 | 0.0739 | 0.204 | 0.74 | 0.238 | 0.0405 | 0.395 |
| Cc1c2c(nn1C)CSCc1cc(n(C)n1)CSc1cc(c3ccccc3c1)OCCCc1c(C(=O)O)n(C)c3c-2c(Cl)ccc13 [AZD5991] + Nc1ccn([C@@H]2O[C@H](CO)[C@@H](O)C2(F)F)c(=O)n1 [Gemcitabine] (first compound max 1 µM, 7x7, partner max 0.3 µM) | 0.0062 | -0.0587 | 0.0122 | -0.0216 | 0.0444 | -0.0947 | -0.0495 | -0.0245 | -0.0053 | 0.0516 | 0.0074 | 0.0278 | 0.0379 | 1 | 0.6 | 0.814 | 0.928 | 0.353 | 0.75 | 0.407 |
| CN(CCO)CC[C@H](CSc1ccccc1)Nc1ccc(S(=O)(=O)NC(=O)c2ccc(N3CCC([C@@H](O)c4ccccc4-c4ccc(Cl)cc4)CC3)cc2)cc1S(=O)(=O)C(F)(F)F [AZD4320] + Nc1ccn([C@@H]2O[C@H](CO)[C@@H](O)C2(F)F)c(=O)n1 [Gemcitabine] (first compound max 1 µM, 7x7, partner max 0.3 µM) | -0.0271 | -0.0015 | 0.0132 | -0.0009 | 0.0213 | -0.0245 | -0.0252 | -0.0024 | -0.0542 | 0.0007 | 0.0077 | 0.0103 | 0.0421 | 0.965 | 0.733 | 0.855 | 1 | 0.627 | 0.875 | 1 |
| N#Cc1cnc(Nc2cc(NC[C@H]3CNCCO3)c(C(F)(F)F)cn2)cn1 [SRA737] + Nc1ccn([C@@H]2O[C@H](CO)[C@@H](O)C2(F)F)c(=O)n1 [Gemcitabine] (first compound max 10 µM, 7x7, partner max 0.3 µM) | 0.0172 | 0.0405 | 0.0649 | 0.0126 | -0.0794 | 0.105 | -0.0148 | -0.0673 | 0.0252 | – | 0.0476 | -0.0384 | -0.0101 | 0.972 | 0.853 | 0.801 | 0.954 | 0.505 | 0.633 | 0.391 |
